Columns and labels:
Assay in all cases: Cell proliferation inhibition experiment, CellTiter-Glo (CTG) method
Assay type in all cases: cell-based
A-431 = conditions: Homo sapiens, A-431, 72 h, A-431 cells, 3 days
Procedure, shortened: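 Luminescent ATP read-out (CellTiter-Glo) after 3-day compound exposure at 37 °C; a T0 plate was read on the day of dosing. Nine concentrations, 3-fold steps, triplicate wells: A-431 from 30 μM, NCI-H1975 and PC-9 from 1.111 μM. IC50 by non-linear S-curve regression.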

PC-9 = conditions: Homo sapiens, PC-9, 72 h, PC-9 cells, 3 days
Procedure, shortened: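 Cells in log-phase growth (viability above 90% by trypan blue) were seeded at 90 μL per well in black-walled, clear-bottom 96-well plates and incubated overnight at 37° C., 5% CO2. A T0 plate was read the next day. Test compounds were added at nine concentrations in triplicate with a solvent control. Viability was measured by CellTiter-Glo luminescence on EnVision, and IC50 came from non-linear S-curve fitting in GraphPad Prism 5.0.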

NCI-H1975 = conditions: for IC50: Homo sapiens, NCI-H1975, 72 h, NCI-H1975 cells, CTG, 3 days; for A-431/NCI-H1975 Selectivity: ratio of A-431 IC50 to NCI-H1975 IC50
Procedure, shortened: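 NCI-H1975 cells with viability above 90% by trypan blue were seeded at 90 μL per well in black 96-well plates and incubated overnight at 37° C., 5% CO2. Compounds were added at nine concentrations in triplicate, and viability was measured with CellTiter-Glo luminescence on EnVision. IC50 came from non-linear S-curve fitting in GraphPad Prism 5.0.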

SMILES	IC50 (A-431) [nM]	IC50 (PC-9) [nM]	IC50 (NCI-H1975) [nM]	A-431/NCI-H1975 Selectivity (NCI-H1975)
C=CC(=O)Nc1cc(Nc2cc(-c3ccc4c(cnn4C)c3)ncn2)c(OC)cc1N(C)CCN1C[C@@H](C)N(C)[C@@H](C)C1 [compound 125]	1580	22.1	32.1	49.2
C=CC(=O)Nc1cc(Nc2cc(-c3ccc4c(cnn4C)c3)ncn2)c(CC)cc1N1CCC(N2CCOCC2)CC1 [compound 283]	1520	46.9	37.3	40.8
C=CC(=O)Nc1cc(Nc2cc(-c3ccc4ncsc4c3)ncn2)c(OC)cc1N(C)CCN1CCN(C)CC1 [compound 124]	1470	32.3	35.2	41.7
C=CC(=O)Nc1cc(Nc2cc(-c3ccc4cnn(C)c4c3)ncn2)c(OC)cc1N1CCN(C)[C@H](C)C1 [compound 51]	1450	59.8	69.4	20.8
C=CC(=O)Nc1cc(Nc2cc(-c3ccc4cnn(C)c4c3)ncn2)c(OC)cc1N(C)C1CCN(CCOC)C1 (centres unmarked) [compound 223]	2320	40.6	40.5	57.4
C=CC(=O)Nc1cc(Nc2cc(-c3ccc4ncsc4c3)ncn2)c(OC)cc1N1CCN(C)CC1 [compound 9]	767	36.2	52.6	14.6
C=CC(=O)Nc1cc(Nc2cc(-c3ccc4c(cnn4C)c3)ncn2)c(OC)cc1N(C)CCCN(C)C [compound 40]	1960	46.1	57	34.5
C=CC(=O)Nc1cc(Nc2cc(-c3ccc4c(cnn4C)c3)ncn2)c(OC)cc1N1CCN(C(C)=O)CC1 [compound 20]	1570	24.9	46.1	33.9
C=CC(=O)Nc1cc(Nc2cc(-c3ccc4nc(C)sc4c3)ncn2)c(OC)cc1OCCN(C)C [compound 285]	633	23.1	40.6	15.6
C=CC(=O)Nc1cc(Nc2cc(-c3ccc4c(c3)ncn4C)ncn2)c(OC)cc1OCCN1CCN(C)CC1 [compound 132]	2040	118	42.3	48.3
C=CC(=O)Nc1cc(Nc2nccc(-c3ccc4c(cnn4C)c3)n2)c(OC)cc1N1CCC(N2CCN(C)CC2)CC1 [compound 230]	1980	59.4	68.2	29.1
C=CC(=O)Nc1cc(Nc2cc(-c3ccc4c(cnn4C)c3)ncn2)c(OC)cc1C(=O)N(C)CCN(C)C [compound 286]	804	30.9	40.1	20.0
C=CC(=O)Nc1cc(Nc2cc(-c3ccc4c(cnn4C)c3)ncn2)c(OC(F)F)cc1N(C)CCN(C)CC [compound 141]	539	23.1	8.4	64.2
C=CC(=O)Nc1cc(Nc2cc(-c3ccc4cnn(C)c4c3)ncn2)c(OC)cc1N1CCC(N2CCN(C3COC3)CC2)CC1 [compound 211]	1040	7.4	11.3	
C=CC(=O)Nc1cc(Nc2cc(-c3ccc4cnn(C)c4c3)ncn2)c(OC(F)F)cc1N1CCC(N2C[C@@H](C)O[C@@H](C)C2)CC1 [compound 162]	763	18.9	16.8	45.4
C=CC(=O)Nc1cc(Nc2cc(-c3ccc4cnn(C)c4c3)ncn2)c(OC(F)F)cc1OCCN(C)C [compound 170]	1650	28	37.4	44.1

SMILES	IC50 (A-431) [nM]	IC50 (PC-9) [nM]	IC50 (NCI-H1975) [nM]	A-431/NCI-H1975 Selectivity (NCI-H1975)
C=CC(=O)Nc1cc(Nc2cc(-c3ccc4cnn(C)c4c3)ncn2)c(OC)cc1N1CC(C)N(C)C(C)C1 (centres unmarked) [compound 42]	686	34.6	25.8	
C=CC(=O)Nc1cc(Nc2cc(-c3ccc4cnn(C)c4c3)ncn2)c(OC)cc1N1CCN(CCO)CC1 [compound 274]	2040	56.7	47	43.4
C=CC(=O)Nc1cc(Nc2cc(-c3ccc4cnn(C)c4c3)ncn2)c(OC)cc1N(C)CCCN(C)C [compound 79]	1100	67.9	73.6	15
C=CC(=O)Nc1cc(Nc2cc(-c3ccc4cnn(C)c4c3)ncn2)c(OC)cc1N1CCC(N2CCCC2=O)CC1 [compound 213]	2060	55.6	74.9	27.4
C=CC(=O)Nc1cc(Nc2cc(-c3ccc4ncsc4c3)ncn2)c(OC)cc1N(C)C1CCN(C)CC1 [compound 81]	1380	26.4	28.7	48.1
C=CC(=O)Nc1cc(Nc2cc(-c3ccc4c(cnn4C(C)C)c3)ncn2)c(OC)cc1N(C)C1CCN(C2CCN(C)CC2)CC1 [compound 87]	1960	77.6	114	17.2
C=CC(=O)Nc1cc(Nc2cc(-c3ccc4cnn(C)c4c3)ncn2)c(OC(F)F)cc1N1CCC(N(CC)CC)CC1 [compound 167]	1050	17.1	16.5	
C=CC(=O)Nc1cc(Nc2nccc(-c3ccc4c(cnn4C)c3)n2)c(OC)cc1N(C)CCNC(C)C [compound 281]	3330	67.9	72	46.2
C=CC(=O)Nc1cc(Nc2cc(-c3ccc4c(cnn4CC)c3)ncn2)c(OC(F)F)cc1N1C[C@@H](C)N(C)[C@@H](C)C1 [compound 98]	1060	31.7	83.5	12.7
C=CC(=O)Nc1cc(Nc2cc(-c3ccc4c(cnn4C)c3)ncn2)c(OCC)cc1N1C[C@@H](C)N(C)[C@@H](C)C1 [compound 90]	1750	15.5	26.5	66.2
C=CC(=O)Nc1cc(Nc2cc(-c3ccc4c(cnn4C)c3)ncn2)c(OC)cc1N1CCN(CC2CC2)CC1 [compound 105]	778	17.9	14.6	53.3
C=CC(=O)Nc1cc(Nc2cc(-c3ccc4cnn(C)c4c3)ncn2)c(OC(F)F)cc1N1CCC(N(C)C)CC1 [compound 174]	1330	15.4	23.5	56.4
C=CC(=O)Nc1cc(Nc2nccc(-c3ccc4c(cnn4C)c3)n2)c(OC)cc1N1C[C@@H](C)N[C@@H](C)C1 [compound 280]	3220	87.4	99.4	32.4
C=CC(=O)Nc1cc(Nc2cc(-c3ccc4cnn(C)c4c3)ncn2)c(OC)cc1N(C)CCN1CCN(C)CC1 [compound 78]	1030	47.8	61.8	16.7
C=CC(=O)Nc1cc(Nc2cc(-c3ccc4c(cnn4CC)c3)ncn2)c(OC)cc1N(C)CCN1CCN(C)CC1 [compound 118]	1060	23.6	19.9	53.2
C=CC(=O)Nc1cc(Nc2cc(-c3ccc4c(cnn4C)c3)ncn2)c(OC(F)F)cc1N1CCN(CCOC)CC1 [compound 145]	1460	33.7	37.1	39.3
